Reference: patent publication US11395857B2, “Radiolabeled melanocortin 1 receptor-specific alpha-melanocyte-stimulating hormone analogues for imaging or therapy” (PROVINCIAL HEALTH SERVICES AUTHORITY, priority 2018, dated 2022)
Like-named read-outs stand apart in the source and are kept apart here.

Experiment: Biodistribution of 177Lu-labeled αMSH analogues in mice bearing B16F10 mouse melanoma
Type: in vivo, C57BL/6J mice
Settings: mouse, iv, total radioactivity, C57BL/6J mice, B16F10 melanoma
Method: The B16-F10 mouse melanoma cells were cultured and inoculated in mice as described in Example 1.
For biodistribution studies, approximately 1-2 MBq of ^177Lu-labeled αMSH analogues via tail vein under anesthesia. At 1, 4, 24, and 120 h p.i., the mice were euthanized by CO2 inhalation. Organs/tissues were harvested and the radioactivity was measured as described in Example 1.

For `CCCC[C@H](NC(=O)CN1CCC(NC(=O)CN2CCN(CC(=O)O)CCN(CC(=O)O)CCN(CC(=O)O)CC2)CC1)C(=O)N[C@H]1CC(=O)NCCCC[C@@H](C(N)=O)N(C)C(=O)[C@H](Cc2c[nH]c3ccccc23)NC(=O)[C@H](CCCNC(=N)N)N(C)C(=O)[C@@H](Cc2ccccc2)NC(=O)[C@H](Cc2c[nH]cn2)NC1=O` [^177Lu-labeled CCZ01106, metal not drawn], which tissue uptake at 120 h (kidneys, 120 h p.i., read-out: Biodistribution, Kidneys) is on record?
Its tissue uptake at 120 h is 0.36 ± 0.05 %ID/g.

And the tissue uptake at 1 h (liver, 1 h p.i., read-out: Biodistribution, Liver)?
The tissue uptake at 1 h was 0.88 ± 0.16 %ID/g.

What about the tissue uptake at 4 h (liver, 4 h p.i., read-out: Biodistribution, Liver) of the same compound?
The tissue uptake at 4 h was 0.81 ± 0.08 %ID/g.

What about the tissue uptake at 24 h (liver, 24 h p.i., read-out: Biodistribution, Liver) of the same compound?
The tissue uptake at 24 h was 0.58 ± 0.14 %ID/g.

And the tissue uptake at 120 h (liver, 120 h p.i., read-out: Biodistribution, Liver)?
The tissue uptake at 120 h was 0.34 ± 0.03 %ID/g.

And the tissue uptake at 1 h (lungs, 1 h p.i., read-out: Biodistribution, Lungs)?
Its tissue uptake at 1 h is 0.6 ± 0.19 %ID/g.

And the tissue uptake at 4 h (lungs, 4 h p.i., read-out: Biodistribution, Lungs)?
Its tissue uptake at 4 h is 0.14 ± 0.04 %ID/g.

What about the tissue uptake at 24 h (lungs, 24 h p.i., read-out: Biodistribution, Lungs) of the same compound?
Its tissue uptake at 24 h is 0.06 ± 0.02 %ID/g.

And the tissue uptake at 120 h (lungs, 120 h p.i., read-out: Biodistribution, Lungs)?
The tissue uptake at 120 h was 0.01 ± 0.01 %ID/g.

And the tissue uptake at 1 h (muscle, 1 h p.i., read-out: Biodistribution, Muscle)?
Its tissue uptake at 1 h is 0.12 ± 0.05 %ID/g.

What about the tissue uptake at 4 h (muscle, 4 h p.i., read-out: Biodistribution, Muscle) of the same compound?
Its tissue uptake at 4 h is 0.02 ± 0.01 %ID/g.

And the tissue uptake at 24 h (muscle, 24 h p.i., read-out: Biodistribution, Muscle)?
Its tissue uptake at 24 h is 0.01 ± 0.01 %ID/g.

And the tissue uptake at 1 h (pancreas, 1 h p.i., read-out: Biodistribution, Pancreas)?
Its tissue uptake at 1 h is 0.15 ± 0.05 %ID/g.

And the tissue uptake at 4 h (pancreas, 4 h p.i., read-out: Biodistribution, Pancreas)?
Its tissue uptake at 4 h is 0.03 %ID/g.

What about the tissue uptake at 24 h (pancreas, 24 h p.i., read-out: Biodistribution, Pancreas) of the same compound?
The tissue uptake at 24 h was 0.03 ± 0.01 %ID/g.

And the tissue uptake at 120 h (pancreas, 120 h p.i., read-out: Biodistribution, Pancreas)?
The tissue uptake at 120 h was 0.01 %ID/g.

And the tissue uptake at 1 h (spleen, 1 h p.i., read-out: Biodistribution, Spleen)?
The tissue uptake at 1 h was 0.38 ± 0.11 %ID/g.

And the tissue uptake at 4 h (spleen, 4 h p.i., read-out: Biodistribution, Spleen)?
The tissue uptake at 4 h was 0.24 ± 0.03 %ID/g.

What about the tissue uptake at 24 h (spleen, 24 h p.i., read-out: Biodistribution, Spleen) of the same compound?
Its tissue uptake at 24 h is 0.2 ± 0.04 %ID/g.

What about the tissue uptake at 120 h (spleen, 120 h p.i., read-out: Biodistribution, Spleen) of the same compound?
The tissue uptake at 120 h was 0.11 ± 0.01 %ID/g.

And the tissue uptake at 1 h (stomach, 1 h p.i., read-out: Biodistribution, Stomach)?
Its tissue uptake at 1 h is 0.36 ± 0.22 %ID/g.

What about the tissue uptake at 4 h (stomach, 4 h p.i., read-out: Biodistribution, Stomach) of the same compound?
Its tissue uptake at 4 h is 0.11 ± 0.02 %ID/g.

What about the tissue uptake at 24 h (stomach, 24 h p.i., read-out: Biodistribution, Stomach) of the same compound?
Its tissue uptake at 24 h is 0.42 ± 0.18 %ID/g.

And the tissue uptake at 120 h (stomach, 120 h p.i., read-out: Biodistribution, Stomach)?
Its tissue uptake at 120 h is 0.1 ± 0.08 %ID/g.

What about the tissue uptake at 1 h (thyroid, 1 h p.i., read-out: Biodistribution, Thyroid) of the same compound?
Its tissue uptake at 1 h is 0.43 ± 0.11 %ID/g.

And the tissue uptake at 4 h (thyroid, 4 h p.i., read-out: Biodistribution, Thyroid)?
The tissue uptake at 4 h was 0.27 ± 0.06 %ID/g.

And the tissue uptake at 24 h (thyroid, 24 h p.i., read-out: Biodistribution, Thyroid)?
The tissue uptake at 24 h was 0.17 ± 0.01 %ID/g.

And the tissue uptake at 120 h (thyroid, 120 h p.i., read-out: Biodistribution, Thyroid)?
The tissue uptake at 120 h was 0.05 ± 0.02 %ID/g.

And the tissue to tissue ratio at 1 h (tumour/blood, 1 h p.i., read-out: Tumour/blood)?
Its tissue to tissue ratio at 1 h is 19.2 ± 8.25.

What about the tissue to tissue ratio at 4 h (tumour/blood, 4 h p.i., read-out: Tumour/blood) of the same compound?
Its tissue to tissue ratio at 4 h is 414 ± 59.

What about the tissue to tissue ratio at 24 h (tumour/blood, 24 h p.i., read-out: Tumour/blood) of the same compound?
The tissue to tissue ratio at 24 h was 652 ± 101.

And the tissue to tissue ratio at 120 h (tumour/blood, 120 h p.i., read-out: Tumour/blood)?
The tissue to tissue ratio at 120 h was 466 ± 382.

And the tissue to tissue ratio at 1 h (tumour/kidney, 1 h p.i., read-out: Tumour/kidney)?
The tissue to tissue ratio at 1 h was 1.75 ± 0.47.

What about the tissue to tissue ratio at 4 h (tumour/kidney, 4 h p.i., read-out: Tumour/kidney) of the same compound?
Its tissue to tissue ratio at 4 h is 2.46 ± 0.87.

What about the tissue to tissue ratio at 24 h (tumour/kidney, 24 h p.i., read-out: Tumour/kidney) of the same compound?
The tissue to tissue ratio at 24 h was 3.08 ± 1.05.

What about the tissue to tissue ratio at 120 h (tumour/kidney, 120 h p.i., read-out: Tumour/kidney) of the same compound?
Its tissue to tissue ratio at 120 h is 1.44 ± 1.14.

What about the tissue to tissue ratio at 1 h (tumour/muscle, 1 h p.i., read-out: Tumour/muscle) of the same compound?
Its tissue to tissue ratio at 1 h is 75 ± 29.8.

What about the tissue to tissue ratio at 4 h (tumour/muscle, 4 h p.i., read-out: Tumour/muscle) of the same compound?
Its tissue to tissue ratio at 4 h is 452 ± 158.

And the tissue to tissue ratio at 24 h (tumour/muscle, 24 h p.i., read-out: Tumour/muscle)?
The tissue to tissue ratio at 24 h was 320 ± 91.8.

What about the tissue to tissue ratio at 120 h (tumour/muscle, 120 h p.i., read-out: Tumour/muscle) of the same compound?
The tissue to tissue ratio at 120 h was 117 ± 92.2.

What about the excreta dose per gram or mL at 1 h (urine, 1 h p.i.) of the same compound?
The excreta dose per gram or mL at 1 h was 222 ± 81.1 %ID/g.

And the excreta dose per gram or mL at 4 h (urine, 4 h p.i.)?
The excreta dose per gram or mL at 4 h was 19.3 ± 4.21 %ID/g.

And the excreta dose per gram or mL at 24 h (urine, 24 h p.i.)?
Its excreta dose per gram or mL at 24 h is 0.94 ± 0.48 %ID/g.

What about the excreta dose per gram or mL at 120 h (urine, 120 h p.i.) of the same compound?
Its excreta dose per gram or mL at 120 h is 0.15 ± 0.07 %ID/g.
